Laboratory results from publication PMC11864979, “First-in-class ultralong-target-residence-time p38α inhibitors as a mitosis-targeted therapy for colorectal cancer” (Nature Cancer, 2025).
“And” between values parts separate entries of the source, which are not always exact repeats. Equal entries are not always repeated. Where two headings read alike, the source gives them in different places.

Legend:
[1] = system: KAP^2D cells; assay: EdU incorporation in KAP^2D cells; format: cell-based, mouse; settings: replicates, experiment and repetition
Experimental: Immunofluorescence staining on cells and organoids was performed on glass coverslips or tissue culture chambers (Sarstedt). Organoids were plated in medium containing 10% Matrigel or Cultrex BME. The cultures were fixed with 4% paraformaldehyde and stained with specific antibodies and DAPI (Vector Labs). All used antibodies and dilutions are listed in the Nature Portfolio Reporting Summary. For analyzing DNA synthesis, the Molecular Probes Click-iT EdU Alexa Fluor 555 kit was used 24 h after EdU incorporation with DAPI counterstaining. SA-β-Gal staining of cells was performed in cell culture dishes (cells) or tissue culture chambers (organoids) after fixation with 0.5% glutaraldehyde as described above. Human cultures were incubated with X-Gal solution at pH 6.0 for ~4 h.

[2] = system: PDO6; assay: cell viability in patient-derived CRC organoids PDO6; format: cell-based, human
Experimental: (§1) For in vitro treatment studies, organoids were mechanically dissociated and digested using TrypLE supplemented with 100 µg ml^−1 DNaseI and 10.5 µM Y-27632 dihydrochloride (Invitrogen) at 37 °C. A total of 1,000–2,000 single cells were plated per well in white 96-well plates (Greiner) in culture medium containing 10% GFR Matrigel or Cultrex BME. The treatment with doxycycline (5 µg ml^−1), pharmacological inhibitors or corresponding volumes of DMSO was started 24 h after plating. Doxycycline was obtained from Sigma-Aldrich. […] Cell viability was measured by means of CellTiter-Glo 3D or CellTiter-Glo 2.0 reagent (Promega) according to the manufacturers’ instructions and the Infinite M Plex reader (Tecan, i-control version 3.9.1 software). Results were normalized to vehicle (DMSO) or to shNC. For cell-doubling assays, the cell number was quantified at the corresponding time points using Guava EasyCyte flow cytometer (Luminex, CytoSoft v5.2 software).

[3] = system: PDO11; assay: cell viability in patient-derived CRC organoids PDO11; format: cell-based, human
Experimental: as §1

[4] = system: RKO; assay: cell viability in human CRC cell line RKO; format: cell-based; settings: ED Fig. 9g, replicates; for viability at 0.0137 µM: read-out: RKO Cell viability (%), 0.0137 µM; for viability at 0.0412 µM: read-out: RKO Cell viability (%), 0.0412 µM; for viability at 0.1235 µM: read-out: RKO Cell viability (%), 0.1235 µM; for viability at 0.3704 µM: read-out: RKO Cell viability (%), 0.3704 µM; for viability at 3.3333 µM: read-out: RKO Cell viability (%), 3.3333 µM; for viability at 10 µM: read-out: RKO Cell viability (%), 10.0000 µM
Experimental: (§2) To generate KAP^2D cells, KAP organoids were isolated from Matrigel, fragmented by mechanical dissociation and plated without any extracellular matrix on common cell culture dishes. Phoenix-Eco packaging cells (CRL-3214), HCT-15 (CCL-225), HCT 116 (CCL-247), COLO 205 (CCL-222), LS 174T (CL-188), RKO (CRL-2577) and HT-29 (HTB-38) were obtained from the American Type Culture Collection. The cells were cultured at 37 °C and 7% CO2 with RPMI (KAP^2D cells) or DMEM (other cell lines), supplemented with 10% FBS and penicillin–streptomycin. KAP^2D cells were authenticated using PCR (Kras locus and Trp53 locus). Phoenix-Eco packaging cells and HCT-15, HCT 116, COLO 205, LS 174T, RKO and HT-29 cells were authenticated by the provider using short tandem repeat profiling. No commonly misidentified cell lines were used. Mycoplasma contamination was excluded by a PCR-based analysis.
as §1

[5] = system: PDO15; assay: cell viability in patient-derived CRC organoids PDO15; format: cell-based, human
Experimental: as §1

[6] = system: PDO8; assay: cell viability in patient-derived CRC organoids PDO8; format: cell-based, human
Experimental: as §1

[7] = system: HCT-15; assay: cell viability in human CRC cell line HCT-15; format: cell-based; settings: for HCT-15 Cell viability (%): 4 d
Experimental: as §2, §1

[8] = system: PDO10; assay: cell viability in patient-derived CRC organoids PDO10; format: cell-based, human
Experimental: as §1

[9] = system: KAP organoids; assay: cell viability in KAP organoids (CellTiter-Glo); format: cell-based, mouse
How it was run: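 Single cells (1,000–2,000/well) from TrypLE/DNaseI/Y-27632-digested organoids, grown in 10% GFR Matrigel or BME medium. Drug or DMSO added at 24 h post-plating. Read-out: CellTiter-Glo 3D or 2.0; values vs vehicle.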

[10] = system: PDO13; assay: cell viability in patient-derived CRC organoids PDO13; format: cell-based, human
Experimental: as §1

[11] = Homo sapiens, RKO, first experiment

For `O=C1c2ccc(Nc3ccc(F)cc3F)cc2CCc2ccc(OC[C@H](O)CO)cc21` [SKL, skepinone-L, reference compound], the “EdU+ cells” value ([1]; Fig. 4j) was 82.79% and 86.90% and 76.55% and 79.03% and 85.67% and 83.92% and 75.07% and 81.04%, the “EdU+ cells” value ([1]; Fig. 5b) was 71.09% and 73.09% and 75.56% and 76.21% and 80.69% and 80.64% and 67.57% and 64.28% and the viability at 1 µM ([2]; Homo sapiens, 96 h, read-out: Cell viability (%), PDO6, 1 µM, 4 days) was 112%. The “Cell viability (%)” value ([2]; PDO6, 0.5 µM, 4 d, 0.5 µM) was 101.15% and 118.77% and 80.46%, the “Cell viability (%)” value ([2]; PDO6, 1 µM, 4 days, 1 µM) was 110.32% and 93.07% and the viability at 0.5 µM ([3]; Homo sapiens, 96 h, read-out: Cell viability (%), PDO11, 0.5 µM, 4 d) was 105%. For the same compound, the “Cell viability (%)” value ([3]; PDO11, 0.5 µM, 4 d, 0.5 µM) was 108.79% and 91.94%, the “Cell viability (%)” value ([3]; PDO11, 1 µM, 4 days, 1 µM) was 107.20% and 119.15% and 97.40% and the “RKO Cell viability (%)” value ([4]; 0.0137 µM, Repetition) was 119.75% and 114.04%. The “RKO Cell viability (%)” value ([4]; 0.0137 µM, first experiment) was 97.01% and 95.97%, the “RKO Cell viability (%)” value ([4]; 0.0412 µM, Repetition) was 110.50% and 104.43% and the “RKO Cell viability (%)” value ([4]; 0.0412 µM, first experiment) was 90.38% and 90.15%. The “RKO Cell viability (%)” value ([4]; 0.1235 µM, Repetition) was 96.29%, the “RKO Cell viability (%)” value ([4]; 0.1235 µM, first experiment) was 96.41% and 82.79% and the “RKO Cell viability (%)” value ([4]; 0.3704 µM, Repetition) was 112.94% and 109.02%. For the same compound, the “RKO Cell viability (%)” value ([4]; 0.3704 µM, first experiment) was 79.06% and 75.48%, the “RKO Cell viability (%)” value ([4]; 1.1111 µM, Repetition) was 92.46% and 113.42% and 111.27% and the “RKO Cell viability (%)” value ([4]; 1.1111 µM, first experiment) was 98.68% and 92.88%. The “RKO Cell viability (%)” value ([4]; 3.3333 µM, Repetition) was 97.71% and 103.33%, the “RKO Cell viability (%)” value ([4]; 3.3333 µM, first experiment) was 90.21% and 92.19% and the “RKO Cell viability (%)” value ([4]; 10.0000 µM, Repetition) was 100.51% and 98.00%. The “RKO Cell viability (%)” value ([4]; 10.0000 µM, first experiment) was 77.92% and 73.23%, the viability at 0.0137 µM ([4]; Homo sapiens, RKO, Repetition) was 123% and the viability at 0.0137 µM [4, 11] was 103%. The viability at 0.0412 µM ([4]; Homo sapiens, RKO, Repetition) was 107%, the viability at 0.0412 µM [4, 11] was 102% and the viability at 0.1235 µM ([4]; Homo sapiens, RKO, Repetition) was 114%. For the same compound, the viability at 0.1235 µM [4, 11] was 91.2%, the viability at 0.3704 µM ([4]; Homo sapiens, RKO, Repetition) was 108% and the viability at 0.3704 µM [4, 11] was 82.8%. For the same compound, the viability at 1.1111 µM ([4]; Homo sapiens, RKO, read-out: RKO Cell viability (%), 1.1111 µM, first experiment) was 99.3%, the viability at 3.3333 µM ([4]; Homo sapiens, RKO, Repetition) was 96.8% and the viability at 3.3333 µM [4, 11] was 96.5%. The viability at 10 µM ([4]; Homo sapiens, RKO, Repetition) was 92%, the viability at 10 µM [4, 11] was 71.1% and the viability at 0.5 µM ([5]; Homo sapiens, 96 h, read-out: Cell viability (%), PDO15, 0.5 µM, 4 d) was 98%. The viability at 1 µM ([5]; Homo sapiens, 96 h, read-out: Cell viability (%), PDO15, 1 µM, 4 days) was 106%, the “Cell viability (%)” value ([5]; PDO15, 0.5 µM, 4 d, 0.5 µM) was 99.16% and 105.27% and the “Cell viability (%)” value ([5]; PDO15, 1 µM, 4 days, 1 µM) was 107.85% and 101.84%. For the same compound, the “Cell viability (%)” value ([6]; PDO8, 0.5 µM, 4 d, 0.5 µM) was 95.66% and 98.53% and 69.31%, the “Cell viability (%)” value ([6]; PDO8, 1 µM, 4 days, 1 µM) was 101.75% and 85.55% and 77.65% and the “HCT-15 Cell viability (%)” value ([7]; 0.0137 µM) was 94.63% and 95.15% and 88.92% and 87.12% and 85.20%. For the same compound, the “HCT-15 Cell viability (%)” value ([7]; 0.0412 µM) was 84.33% and 79.97% and 95.82% and 93.07% and 94.19%, the “HCT-15 Cell viability (%)” value ([7]; 0.1235 µM) was 87.23% and 83.60% and 94.86% and 91.54% and 91.68% and the “HCT-15 Cell viability (%)” value ([7]; 0.3704 µM) was 89.64% and 87.65% and 88.79% and 84.50% and 86.12%. The “HCT-15 Cell viability (%)” value ([7]; 1.1111 µM) was 86.80% and 87.17% and 87.53% and 83.96% and 84.00%, the “HCT-15 Cell viability (%)” value ([7]; 3.3333 µM) was 78.50% and 80.56% and 79.62% and 74.15% and 75.97% and the “HCT-15 Cell viability (%)” value ([7]; 10.0000 µM) was 48.74% and 48.84% and 48.80% and 46.08% and 47.66%. It also gave a viability at 0.0137 µM ([7]; Homo sapiens, HCT-15, 96 h, read-out: HCT-15 Cell viability (%), 0.0137 µM, 4 d) of 96.7%, a viability at 0.0412 µM ([7]; Homo sapiens, HCT-15, 96 h, read-out: HCT-15 Cell viability (%), 0.0412 µM, 4 d) of 83.9% and a viability at 0.1235 µM ([7]; Homo sapiens, HCT-15, 96 h, read-out: HCT-15 Cell viability (%), 0.1235 µM, 4 d) of 87.5%. For the same compound, the viability at 0.3704 µM ([7]; Homo sapiens, HCT-15, 96 h, read-out: HCT-15 Cell viability (%), 0.3704 µM, 4 d) was 93.1%, the viability at 1.1111 µM ([7]; Homo sapiens, HCT-15, 96 h, read-out: HCT-15 Cell viability (%), 1.1111 µM, 4 d) was 93.5% and the viability at 3.3333 µM ([7]; Homo sapiens, HCT-15, 96 h, read-out: HCT-15 Cell viability (%), 3.3333 µM, 4 d) was 76.4%. For the same compound, the viability at 10 µM ([7]; Homo sapiens, HCT-15, 96 h, read-out: HCT-15 Cell viability (%), 10.0000 µM, 4 d) was 49.5%, the viability at 0.5 µM ([8]; Homo sapiens, 96 h, read-out: Cell viability (%), PDO10, 0.5 µM, 4 d) was 90.5% and the viability at 1 µM ([8]; Homo sapiens, 96 h, read-out: Cell viability (%), PDO10, 1 µM, 4 days) was 94.7%. For the same compound, the “Cell viability (%)” value ([8]; PDO10, 0.5 µM, 4 d, 0.5 µM) was 87.26% and 98.21%, the “Cell viability (%)” value ([8]; PDO10, 1 µM, 4 days, 1 µM) was 92.67% and 102.90% and the “Cell viability (%)” value ([9]; Fig. 1g, 0.5 µM, replicates) was 97.57% and 86.81% and 127.06%. The “Cell viability (%)” value ([9]; Fig. 1g, 1 µM, replicates) was 93.70% and 102.05% and 122.58%, the “Cell viability (%)” value ([9]; Fig. 2b, compound screen, replicates) was 78.66% and 92.01% and 89.54% and the “Cell viability (%)” value ([9]; Fig. 1d, 0.5 µM, replicates) was 86.70% and 72.97%. The “Cell viability (%)” value ([9]; Fig. 1d, 1 µM, replicates) was 91.26% and 93.11%, the “Cell viability (%)” value ([9]; Fig. 1d, 5 µM, replicates) was 88.80% and 85.26% and the “Cell viability (%)” value ([9]; Fig. 1d, 10 µM, replicates) was 80.68% and 88.78% and 66.49%. The viability at 0.5 µM ([9]; Mus musculus, 24 h, read-out: Cell viability (%), Fig. 1d, 0.5 µM, replicates) was 90.7%, the viability at 1 µM ([9]; Mus musculus, 24 h, read-out: Cell viability (%), Fig. 1d, 1 µM, replicates) was 87.6% and the viability at 5 µM ([9]; Mus musculus, 24 h, read-out: Cell viability (%), Fig. 1d, 5 µM, replicates) was 86.5%. For the same compound, the viability at 1 µM ([9]; Mus musculus, read-out: Cell viability (% of DMSO), drug screen in KAP organoids, 1 µM concentration, n = 3, mean) was 86.7%, the “induction of cell death in KAP organoids (in words)” value ([9]; viability assay) was “only a very weak induction of cell death” and the viability at 0.5 µM ([10]; Homo sapiens, 96 h, read-out: Cell viability (%), PDO13, 0.5 µM, 4 d) was 90.8%. The viability at 1 µM ([10]; Homo sapiens, 96 h, read-out: Cell viability (%), PDO13, 1 µM, 4 days) was 85.6%, the “Cell viability (%)” value ([10]; PDO13, 0.5 µM, 4 d, 0.5 µM) was 102.60% and 92.37% and the “Cell viability (%)” value ([10]; PDO13, 1 µM, 4 days, 1 µM) was 87.89% and 85.59%.
